How the values were obtained:
[1] = biological target: glycosyltransferase (PBP 1b) (Escherichia coli, UniProt P02919); test: glycosyltransferase assay: displacement of 3H-moenomycin from the glycosyltransferase (PBP 1b)/3H-moenomycin complex; assay type: binding; conditions: displacement of 3H-moenomycin from PBP 1b; read-out: inhibitory constants (IC50 values) in the glycosyltransferase assay
From the text: Table 1 summarizes, by way of example, the inhibitory concentrations (IC50) of some compounds of the invention. A special test system was used for finding glycosyltransferase inhibitors that are specific and very effective. This system uses a glycosyltransferase/^3H-moenomycin complex, which is brought into contact with substances that are to be tested. The determination of the GT-inhibitory effect is based on the displacement of radioactively labeled moenomycin A from the glycosyltransferase (PBP 1b)/^3H-moenomycin complex, it being possible to separate the released ^3H-moenomycin, as a soluble compound, from the fixed complex and to measure the remaining radioactivity using a Geiger counter.
The assay was carried out as described by Vollmer & Höltje (Antimicrobial Agents and Chemotherapy 2000, 44, 1181-1185), except that purified penicillin-binding protein 1b (PBP 1b; 5 pM), carrying ^3H-labeled moenomycin at the glycosyltransferase site, was used in the present example instead of [3H]benzylpenicillin. ^3H-Moenomycin was obtained from moenomycin A (Kurz et al., Eur. J. Biochem., 1998, 252, 500-507) by hydrogenating it with ^3H2:
6 mg of moenomycin, dissolved in 300 μL methanol, were added to a 1 cm^3 flask, after which 2 mg of palladium-charcoal (Degussa Type E10N/D) were added. The flask was then gassed, while excluding air, with 1 cm^3 3H2; and the reaction solution was left to hydrogenate for 15 minutes. After the reaction had come to an end, the catalyst was filtered off from the reaction mixture, which was diluted to 100 mL with ethanol. This solution can be used directly for preparing the glycosyltransferase/^3H-moenomycin complex. Total radioactivity of the reaction product: 6.56 GBq (177 mCi); specific activity: 1.9 TBq/mmol. The radioactive complex was attached to SPA PVT Copper His-Tag beads. The radioactive moenomycin that was displaced by the inhibitors was measured. • SPA PVT Copper His-Tag beads: Amersham RPN 0095; • PBS: GIBCO BRL 14200-067; • BSA: Calbiochem 12657; • NOG: SIGMA O-8001 (n-octyl β-D-glucopyranoside); • Tween 20: Acros 23336-067; • Microtiter plates: Greiner Labortechnik.
The determination was carried out in microtiter plates. 10 μL of the test solution were added to the microtiter plates, followed by 10 μL of ^3H-moenomycin (25 nM, 3.1 kBq/well) and 40 μL of SPA beads loaded with PBP 1b (100 μg of beads, 45 nM enzyme). The plates were sealed and left to stand at room temperature for 8 hours. After that, the beads were separated off from the test solution by centrifuging for 3 minutes at 1300 rpm. The distribution of the radioactivity was measured in a WALLAC MicroBeta® 1450 Counter.
The inhibitory values were calculated in accordance with the formula: [1−(cpmsample−cpmlow ctr)/(cpmhigh ctr−cpmlow ctr)]×100(%).

[2] = solubility (description of the substance); assay type: physicochemical; conditions: for solubility in organic solvents: medium-polar and polar organic solvents
[3] = stability (description of the substance); assay type: physicochemical; conditions: for stability in solution depending on pH: neutral, mildly acidic, strongly acidic, strongly alkaline media
Bacillus subtilis = conditions: against Bacillus subtilis; cited from earlier work
[4] = cited from earlier work

glycosyltransferase (PBP 1b), sequence (P02919 whole entry): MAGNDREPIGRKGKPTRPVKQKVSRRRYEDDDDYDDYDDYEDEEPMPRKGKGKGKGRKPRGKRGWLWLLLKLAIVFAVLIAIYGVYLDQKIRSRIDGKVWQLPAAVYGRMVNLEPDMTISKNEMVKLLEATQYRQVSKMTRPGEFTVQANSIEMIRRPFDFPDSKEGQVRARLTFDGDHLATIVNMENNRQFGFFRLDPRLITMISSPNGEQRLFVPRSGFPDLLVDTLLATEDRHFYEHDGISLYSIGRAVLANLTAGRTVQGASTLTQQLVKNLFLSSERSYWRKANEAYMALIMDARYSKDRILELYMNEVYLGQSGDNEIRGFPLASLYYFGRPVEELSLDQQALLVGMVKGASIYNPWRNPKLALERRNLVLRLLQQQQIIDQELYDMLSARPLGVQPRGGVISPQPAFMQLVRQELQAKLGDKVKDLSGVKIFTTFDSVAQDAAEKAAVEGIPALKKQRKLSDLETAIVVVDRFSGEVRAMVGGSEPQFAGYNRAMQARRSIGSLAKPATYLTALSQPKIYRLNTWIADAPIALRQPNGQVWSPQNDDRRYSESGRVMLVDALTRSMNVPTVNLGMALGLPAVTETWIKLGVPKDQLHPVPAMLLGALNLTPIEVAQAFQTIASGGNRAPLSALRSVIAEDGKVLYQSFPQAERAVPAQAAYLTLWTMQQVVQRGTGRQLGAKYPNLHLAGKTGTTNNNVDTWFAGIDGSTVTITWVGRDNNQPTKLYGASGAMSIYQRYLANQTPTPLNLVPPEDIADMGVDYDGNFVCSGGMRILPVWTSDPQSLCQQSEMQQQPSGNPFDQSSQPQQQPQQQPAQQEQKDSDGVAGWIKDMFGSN

O=C(O)/C=C/C=C\C=C\C=C/c1ccccc1/C=C/C=C/C(=O)O [serpentemycin A]
IC50 [1]: 0.2 µM | solubility in organic solvents [2]: soluble in medium-polar and polar organic solvents | solubility in water [2]: not particularly soluble in water | sensitivity to light and air [3]: sensitive to light and air | stability in solution depending on pH [3]: stable in neutral and mildly acidic media but unstable in strongly acidic and strongly alkaline solution

O=C(O)/C=C/C=C/C=C\c1ccccc1/C=C/C=C/C(=O)O [serpentemycin B]
IC50 [1]: 0.1 µM | solubility in organic solvents [2]: soluble in medium-polar and polar organic solvents | solubility in water [2]: not particularly soluble in water | sensitivity to light and air [3]: sensitive to light and air | stability in solution depending on pH [3]: stable in neutral and mildly acidic media, but unstable in strongly acidic and strongly alkaline solution

CC(O)C(O)/C=C/C=C/C=C/c1ccccc1/C=C/C=C/C(=O)O (stereo not drawn) [serpentemycin D]
IC50 [1]: 19 µM | solubility in organic solvents [2]: soluble in medium-polar and polar organic solvents | solubility in water [2]: not particularly soluble in water | sensitivity to light and air [3]: sensitive to light and air | stability in solution depending on pH [3]: stable in neutral and mildly acidic media but unstable in strongly acidic and strongly alkaline solution

C/C=C/C=C\C=C\C=C/c1ccccc1/C=C/C=C/C(=O)O [serpentene, reference compound]
IC50 [1]: 18 µM | antibiotic effect (Bacillus subtilis): weak antibiotic effect

moenomycin
absorption from the gastrointestinal tract [4]: not absorbed from the gastrointestinal tract

Reference: patent publication US7259276B2, “Polyenecarboxylic acid derivatives, processes for preparing them, and their use” (Sanofi-Aventis Deutschland GmbH, priority 2002, dated 2007)
